# Numbered stars: 1 amine (or outer) side, 2 acyl side, 3 side chain; on linkers, the order of the positions; unused ones are H or OH. Bridge positions count the residues as written; N and C are the ends. Square brackets hold non-standard residues; d marks the D form. Peptide text beside a SMILES is read from it. * marks the point of attachment. ξ: configuration not given here. TBMB(SCH2CH2NH-DOTA) = O=C(O)CN1CCN(CC(=O)O)CCN(CC(=O)NCCSCc2cc(C[*:1])cc(C[*:2])c2)CCN(CC(=O)O)CC1; X7 = O=C(CCP(=O)(O)CN1CCN(CP(=O)(O)CO)CCN(CP(=O)(O)CO)CC1)NCCSCc1cc(C[*:1])cc(C[*:2])c1; X18 = NCCNCC(CNCCN)C(=O)N[C@@H](CCC(=O)O)C(=O)NCCCOCCOCCOCCCN*; mXylylene = c1cc(C[*:1])cc(C[*:2])c1; Suc = O=C(CCC(=O)[*:2])[*:1]; Nle = CCCC[C@H](N)C(=O)O; CO = O=C([*:1])[*:2]; ξC = NC(CS)C(=O)O; Sar = CNCC(=O)O; NHBu = CCCCN*
# Tests used:
# Human recombinant FAP [1] = biological target: T1, Human recombinant FAP (Homo sapiens, UniProt Q12884); assay: Surface plasmon resonance (Biacore) assay; assay type: binding
# Human recombinant FAP [2] = biological target: T1, Human recombinant FAP; assay: FRET-based FAP protease activity assay; assay type: biochemical; parameters: purchased R&D systems 3715-SE
# [3] = biological target: T2, FAP-expressing human WI-38 fibroblasts (Homo sapiens, UniProt Q12884); assay: Competitive FACS binding assay
# T2 construct: FAP-expressing human WI-38 fibroblasts (ECACC) were cultured in EMEM; host or cells: WI-38 human fibroblasts
# Procedure: Cells were analyzed in an Attune NxT flow cytometer. […] […].
# Cells were analyzed in an Attune NxT flow cytometer. […]
# in vivo = settings: female, athymic nude, mouse, iv
# [4] = pIC50 Category (Activity), FRET-peptide substrate, 37° C.
# [5] = blood pool surrogate (BPS), uptake BPS 0.25 h, ^68Ga-labeled, BPS (blood pool surrogate), PET/CT, 0.25 h post tracer injection
# [6] = blood pool surrogate (BPS), uptake BPS 1 h, ^68Ga-labeled, BPS (blood pool surrogate), PET/CT, 1 h post tracer injection
# [7] = blood pool surrogate (BPS), uptake BPS 3 h, ^68Ga-labeled, BPS (blood pool surrogate), PET/CT, 3 h post tracer injection
# [8] = kidneys, uptake Kidneys 0.25 h, ^68Ga-labeled, PET/CT, 0.25 h post tracer injection
# [9] = kidneys, uptake Kidneys 1 h, ^68Ga-labeled, PET/CT, 1 h post tracer injection
# [10] = kidneys, uptake Kidneys 3 h, ^68Ga-labeled, PET/CT, 3 h post tracer injection
# [11] = tumor, uptake Tumor 0.25 h, ^68Ga-labeled, HEK-FAP tumor, PET/CT, 0.25 h post tracer injection
# [12] = tumor, uptake Tumor 1 h, ^68Ga-labeled, HEK-FAP tumor, PET/CT, 1 h post tracer injection
# [13] = tumor, uptake Tumor 3 h, ^68Ga-labeled, HEK-FAP tumor, PET/CT, 3 h post tracer injection
# [14] = pIC50 Category (activity), Recombinant human FAP
# T1 sequence (Q12884 whole entry): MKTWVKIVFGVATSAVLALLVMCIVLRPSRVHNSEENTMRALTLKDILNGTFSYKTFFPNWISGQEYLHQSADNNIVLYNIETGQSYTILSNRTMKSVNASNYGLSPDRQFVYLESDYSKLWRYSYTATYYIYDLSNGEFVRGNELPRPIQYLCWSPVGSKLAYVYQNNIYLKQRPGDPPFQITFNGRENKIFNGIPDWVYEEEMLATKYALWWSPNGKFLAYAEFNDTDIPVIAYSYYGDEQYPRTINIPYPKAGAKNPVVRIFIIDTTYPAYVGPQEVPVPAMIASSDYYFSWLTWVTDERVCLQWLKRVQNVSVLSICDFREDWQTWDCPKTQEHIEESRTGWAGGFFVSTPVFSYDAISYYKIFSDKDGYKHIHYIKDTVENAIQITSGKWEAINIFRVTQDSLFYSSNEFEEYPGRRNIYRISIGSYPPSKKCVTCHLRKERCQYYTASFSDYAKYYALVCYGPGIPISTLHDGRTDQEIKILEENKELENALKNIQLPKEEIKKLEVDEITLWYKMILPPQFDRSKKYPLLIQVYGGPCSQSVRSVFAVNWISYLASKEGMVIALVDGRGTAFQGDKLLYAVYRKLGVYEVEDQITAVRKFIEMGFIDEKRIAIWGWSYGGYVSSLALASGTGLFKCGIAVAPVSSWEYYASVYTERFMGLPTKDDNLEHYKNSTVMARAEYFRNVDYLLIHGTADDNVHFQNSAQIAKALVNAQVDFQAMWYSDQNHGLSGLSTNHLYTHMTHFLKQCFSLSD
# T2 sequence (Q12884 whole entry): as above
Compound,Kd (Human recombinant FAP [1]),IC50 (Human recombinant FAP [2]; [4]),IC50 [3],IC50 (Human recombinant FAP [2]; [14]),also measured
"CCCCOC(=O)N[C@H]1CSCc2cc(CSCCNC(=O)CN3CCN(CC(=O)O)CCN(CC(=O)O)CCN(CC(=O)O)CC3)cc(c2)CSC[C@@H](C(=O)O)NC(=O)[C@H](Cc2ccccc2)NC(=O)[C@H](CCC(N)=O)NC(=O)[C@H]([C@@H](C)O)NC(=O)[C@@H]2CCCN2C(=O)[C@@H]2CCCN2C1=O [3BP-3941, nBu-COyl-[Cys(tMeBn(DOTA-AET))-Pro-Pro-Thr-Gln-Phe-Cys]-OH]",< 10 nM,< 10 nM,< 10 nM,–,–
"CCCC[C@H](NC(=O)CCC(=O)NCCCOCCOCCOCCCNC(=O)[C@H](CCC(=O)O)NC(=O)C(CNCCN)CNCCN)C(=O)N[C@H]1CSCc2cccc(c2)CSC[C@@H](C(=O)O)NC(=O)[C@H](Cc2ccccc2)NC(=O)[C@H](CCC(=O)O)NC(=O)[C@H]([C@@H](C)O)NC(=O)[C@@H]2CCCN2C(=O)[C@@H]2CCCN2C1=O [3BP-4222, N4Ac-Glu-Ttds-Nle-[Cys-(3MeBn)-Pro-Pro-Thr-Glu-Phe-Cys]-OH] ({X18-Suc}-[Nle]CPPTEFC-OH; linker 2-8 via mXylylene)",< 10 nM,10 to 79.4 nM,10 to 79.4 nM,–,–
"CCCC[C@H](NC(=O)CCC(=O)NCCCOCCOCCOCCCNC(=O)[C@H](CCC(=O)NC[C@H](O)[C@@H](O)[C@H](O)[C@H](O)CO)NC(=O)C(CNCCN)CNCCN)C(=O)N[C@H]1CSCc2cccc(c2)CSC[C@@H](C(=O)O)NC(=O)[C@H](Cc2ccccc2)NC(=O)[C@H](CCC(N)=O)NC(=O)[C@H]([C@@H](C)O)NC(=O)[C@@H]2CCCN2C(=O)[C@@H]2CCCN2C1=O [3BP-4246, N4Ac-Glu(AGLU)-Ttds-Nle-[Cys-(3MeBn)-Pro-Pro-Thr-Gln-Phe-Cys]-OH]",< 10 nM,10 to 79.4 nM,10 to 79.4 nM,–,–
"CCCCCC(=O)N[C@H]1CSCc2cc(CSCCNC(=O)COCCOCCNC(=O)CCC(C(=O)O)N3CCN(CC(=O)O)CCN(CC(=O)O)CC3)cc(c2)CSC[C@@H](C(=O)O)NC(=O)[C@H](Cc2ccccc2)NC(=O)[C@H](CCC(N)=O)NC(=O)[C@H]([C@@H](C)O)NC(=O)[C@@H]2CCCN2C(=O)[C@@H]2CCCN2C1=O (stereo partly drawn) [3BP-4251, Hex-[Cys-(tMeBn(NODAGA-O2Oc-AET))-Pro-Pro-Thr-Gln-Phe-Cys]-OH]",< 10 nM,< 10 nM,< 10 nM,–,–
"CCCCNC(=O)N[C@H]1CSCc2cc(cc(CN3CCN(C(=O)CN4CCN(CC(=O)O)CCN(CC(=O)O)CCN(CC(=O)O)CC4)CC3)c2)CSC[C@@H](C(=O)O)NC(=O)[C@H](Cc2ccccc2)NC(=O)[C@H](CCC(N)=O)NC(=O)[C@H]([C@@H](C)O)NC(=O)[C@@H]2CCCN2C(=O)[C@@H]2CCCN2C1=O [3BP-4564, nBu-CAyl-[Cys(tMeBn(DOTA-PP))-Pro-Pro-Thr-Gln-Phe-Cys]-OH]",< 10 nM,< 10 nM,< 10 nM,–,–
"CCCCNC(=O)N[C@H]1CSCc2cc(cc(CN3CCN(C(=O)CN4CCN(CC(=O)O)CCN(CC(=O)O)CCN(CC(=O)O)CC4)CC3)c2)CSC[C@@H](C(N)=O)NC(=O)[C@H](Cc2ccccc2)NC(=O)[C@H](CCC(N)=O)NC(=O)[C@H]([C@@H](C)O)NC(=O)[C@@H]2CCCN2C(=O)[C@@H]2CCCN2C1=O [3BP-4565, nBu-CAyl-[Cys(tMeBn(DOTA-PP))-Pro-Pro-Thr-Gln-Phe-Cys]-NH2]",< 10 nM,< 10 nM,< 10 nM,–,–
"CCCCNC(=O)N[C@H]1CSCc2cc(CSCCNC(=O)CN3CCN(CC(=O)O)CCN(CC(=O)O)CCN(CC(=O)O)CC3)cc(c2)CSC[C@@H](C(=O)O)NC(=O)[C@H](Cc2ccccc2)NC(=O)[C@H](CCC(N)=O)NC(=O)[C@H]([C@@H](C)O)NC(=O)[C@@H]2CCCN2C(=O)CN(C)C1=O [3BP-4607, nBu-CAyl-[Cys(tMeBn(DOTA-AET))-Nmg-Pro-Thr-Gln-Phe-Cys]-OH] ({NHBu-CO}-C[Sar]PTQFC-OH; linker 1-7 via TBMB(SCH2CH2NH-DOTA))",< 10 nM,< 10 nM,< 10 nM,–,–
"CCCCNC(=O)N[C@H]1CSCc2cc(CSCCNC(=O)CN3CCN(CC(=O)O)CCN(CC(=O)O)CCN(CC(=O)O)CC3)cc(c2)CSC[C@@H](C(N)=O)NC(=O)[C@H](Cc2ccccc2)NC(=O)[C@H](CCC(N)=O)NC(=O)[C@H]([C@@H](C)O)NC(=O)[C@@H]2CCCN2C(=O)CN(C)C1=O [3BP-4621, nBu-CAyl-[Cys(tMeBn(DOTA-AET))-Nmg-Pro-Thr-Gln-Phe-Cys]-NH2] ({NHBu-CO}-C[Sar]PTQFC-NH2; linker 1-7 via TBMB(SCH2CH2NH-DOTA))",< 10 nM,< 10 nM,< 10 nM,–,–
"CCCCNC(=O)N[C@H]1CSCc2cc(CSCCNC(=O)CCP(=O)(O)CN3CCN(CP(=O)(O)CO)CCN(CP(=O)(O)CO)CC3)cc(c2)CSCC(C(=O)O)NC(=O)[C@H](Cc2ccccc2)NC(=O)[C@H](CCC(N)=O)NC(=O)[C@H]([C@@H](C)O)NC(=O)[C@@H]2CCCN2C(=O)[C@@H]2CCCN2C1=O (stereo partly drawn) [3BP-4768, nBu-CAyl-[Cys(tMeBn(NOPO-AET))-Pro-Pro-Thr-Gln-Phe-Cys]-OH]",< 10 nM,–,< 10 nM,< 10 nM,tissue uptake at 0.25 h (in vivo; [5]): 2.54 %ID/g; tissue uptake at 1 h (in vivo; [6]): 0.78 %ID/g; tissue uptake at 3 h (in vivo; [7]): 0.27 %ID/g; tissue uptake at 0.25 h (in vivo; [8]): 18.4 %ID/g; tissue uptake at 1 h (in vivo; [9]): 2.45 %ID/g; tissue uptake at 3 h (in vivo; [10]): 0.67 %ID/g; tissue uptake at 0.25 h (in vivo; [11]): 7.82 %ID/g; tissue uptake at 1 h (in vivo; [12]): 9.42 %ID/g; tissue uptake at 3 h (in vivo; [13]): 9.2 %ID/g
"CCCCNC(=O)N[C@H]1CSCc2cc(CSCCNC(=O)CCP(=O)(O)CN3CCN(CP(=O)(O)CO)CCN(CP(=O)(O)CO)CC3)cc(c2)CSCC(C(=O)O)NC(=O)[C@H](Cc2ccccc2)NC(=O)[C@H](CCC(=O)O)NC(=O)[C@H]([C@@H](C)O)NC(=O)[C@@H]2CCCN2C(=O)[C@@H]2CCCN2C1=O (stereo partly drawn) [3BP-4778, nBu-CAyl-[Cys(tMeBn(NOPO-AET))-Pro-Pro-Thr-Glu-Phe-Cys]-OH] ({NHBu-CO}-CPPTEF[ξC]-OH; linker 1-7 via X7)",< 10 nM,–,< 10 nM,< 10 nM,tissue uptake at 0.25 h (in vivo; [5]): 1.61 %ID/g; tissue uptake at 1 h (in vivo; [6]): 0.77 %ID/g; tissue uptake at 3 h (in vivo; [7]): 0.33 %ID/g; tissue uptake at 0.25 h (in vivo; [8]): 3.38 %ID/g; tissue uptake at 1 h (in vivo; [9]): 1.81 %ID/g; tissue uptake at 3 h (in vivo; [10]): 1 %ID/g; tissue uptake at 0.25 h (in vivo; [11]): 3.66 %ID/g; tissue uptake at 1 h (in vivo; [12]): 4.06 %ID/g; tissue uptake at 3 h (in vivo; [13]): 4.45 %ID/g
"CCCC[C@H](NC(=O)CCC(=O)NCCCOCCOCCOCCCNC(=O)CN1CCN(CC(=O)O)CCN(CC(=O)O)CC1)C(=O)N[C@H]1CSCc2cccc(c2)CSCC(C(=O)O)NC(=O)[C@H](Cc2ccccc2)NC(=O)[C@H](CCC(N)=O)NC(=O)[C@H]([C@@H](C)O)NC(=O)[C@@H]2CCCN2C(=O)[C@@H]2CCCN2C1=O (stereo partly drawn) [3BP-5201, NOTA-Ttds-Nle-[Cys(3MeBn)-Pro-Pro-Thr-Gln-Phe-Cys]-OH]",< 10 nM,–,< 10 nM,10 to 79.4 nM,tissue uptake at 0.25 h (in vivo; blood pool surrogate (BPS)): 2.31 %ID/g; tissue uptake at 1 h (in vivo; blood pool surrogate (BPS)): 0.85 %ID/g; tissue uptake at 3 h (in vivo; blood pool surrogate (BPS)): 0.38 %ID/g; tissue uptake at 0.25 h (in vivo; kidneys): 9.27 %ID/g; tissue uptake at 1 h (in vivo; kidneys): 1.97 %ID/g; tissue uptake at 3 h (in vivo; kidneys): 1 %ID/g; tissue uptake at 0.25 h (in vivo; tumor): 5.56 %ID/g; tissue uptake at 1 h (in vivo; tumor): 6.3 %ID/g; tissue uptake at 3 h (in vivo; tumor): 6.25 %ID/g
"CCCCNC(=O)N[C@H]1CSCc2cc(CSCCNC(=O)CN3CCN(CC(=O)O)CCN(CC(=O)O)CC3)cc(c2)CSCC(C(=O)O)NC(=O)[C@H](Cc2ccccc2)NC(=O)[C@H](CCC(N)=O)NC(=O)[C@H]([C@@H](C)O)NC(=O)[C@@H]2CCCN2C(=O)[C@@H]2CCCN2C1=O (stereo partly drawn) [3BP-5210, nBu-CAyl-[Cys(tMeBn(NOTA-AET))-Pro-Pro-Thr-Gln-Phe-Cys]-OH]",< 10 nM,–,< 10 nM,< 10 nM,tissue uptake at 0.25 h (in vivo; blood pool surrogate (BPS)): 2.72 %ID/g; tissue uptake at 1 h (in vivo; blood pool surrogate (BPS)): 0.68 %ID/g; tissue uptake at 3 h (in vivo; blood pool surrogate (BPS)): 0.14 %ID/g; tissue uptake at 0.25 h (in vivo; kidneys): 37.3 %ID/g; tissue uptake at 1 h (in vivo; kidneys): 5.61 %ID/g; tissue uptake at 3 h (in vivo; kidneys): 0.42 %ID/g; tissue uptake at 0.25 h (in vivo; tumor): 7.48 %ID/g; tissue uptake at 1 h (in vivo; tumor): 8.9 %ID/g; tissue uptake at 3 h (in vivo; tumor): 9.53 %ID/g
